Experimental data from paper PMC7722660 (Neuropsychopharmacology Reports, 2020).
Values joined by “and” are separate entries in the source; they are usually repeats but may differ in a detail not shown here. Equal entries are not always repeated. Values belong to the molecule of their own block, whether it stands above or below them.

How the values were obtained:
rats [1] = details: cited from earlier work
[2] = Spontaneous locomotor activity in rats; type: in vivo, rat; details: up to 100 mg/kg, data not shown
rats [3] = test: Rat EEG; type: in vivo; details: 100 mg/kg p.o., vs vehicle
[4] = test system: 55 molecular targets, including neurotransmitter receptors, ion channels, and transporters; test: Cerep ExpresSProfile off-target panel; type: binding; details: 10 μmol/L
[5] = Pharmacokinetic study in rats; type: in vivo; details: rat, plasma
[6] = Brain penetration: plasma and brain concentrations in rats; details: rat, in vivo, po
OX2 receptor [7] = details: agonist ref 21; cited from earlier work
OX2 receptor [8] = details: cited from earlier work

Molecule: Cc1cc(C)nc(N2CC3CN(C(=O)c4c(F)cccc4-n4nccn4)CC3C2)n1 (stereo not shown) [JNJ‐42847922]
effect on REM sleep (rats [1]; rats ref 19, 23): did not exert a significant effect
effect on NREM sleep time (rats [1]; rats, first 2 hours of sleep ref 19, 23): prolonged

inhibitory effects on 55 other molecular targets [4]: ≤ 50%
half-life ([5]; iv, 1 mg/kg): 22.2 min
Cmax ([5]; po, 30 mg/kg): 1180 ng/mL
Tmax ([5]; po, 30 mg/kg): 15 min
half-life ([5]; po, 30 mg/kg): 25.8 min
concentration at 30 min ([6]; 30 mg/kg): 110 ng/mL and 28 ng/g
concentration at 30 min ([6]; 100 mg/kg): 601 ng/mL and 198 ng/g
Molecule: COc1c(C#N)ccnc1N1C2CCC1CN(C(=O)c1cccnc1-n1cccn1)C2 [SDM‐878, 2‐(3‐(2‐(1H‐pyrazol‐1‐yl)nicotinoyl)‐3,8‐diazabicyclo[3.2.1]octan‐8‐yl)‐3‐methoxyisonicotinonitrile]
effect on spontaneous locomotor activity [2]: did not affect
effect on duration of REM sleep (rats [3]): did not observe a significant effect
effect on duration of NREM sleep (rats [3]; P < .05): significantly increased
effect on time spent in wakefulness (rats [3]; P < .05): significantly decreased
effect on total sleep (rats [3]; P < .05): significantly increased

Molecule: [Ala^11, D‐Leu^15]‐orexin‐B [ADL‐OXB]
selectivity for the OX2 receptor over the OX1 receptor (OX2 receptor [7]): 400 fold

Molecule: orexin‐B
fold higher affinity for the OX2 receptor than for the OX1 receptor (OX2 receptor [8]): 10 fold
